Test results reported in patent US20160138077A1, “MONITORING AND ASSESSING DEACETYLASE ENZYME ACTIVITY” (THE GENERAL HOSPITAL CORPORATION, priority 2013, published 2016).

Legend:
Format in all cases: biochemical
[1] = molecular target: T1, Pepsin (Sus scrofa, UniProt P00791); test: LCMS assay of protease enzymatic action on HP-1 (HDAC buffer at pH 4); conditions: −SAHA, 5 μM HP-1, 12 hours at 37° C.
T1 construct: purchased Sigma-Aldrich
Method: The enzymatic cleavage of HP-1 was analyzed by performing LCMS assays with sirtuin 1 and 3 (Cayman Chemicals) and the proteases chymotrypsin (Sigma-Aldrich), cathepsin (EMD Millipore), and pepsin* (Sigma-Aldrich). Solutions containing (i) vehicle with DMSO in HDAC buffer, (ii) 5 μM HP-1 in HDAC buffer, and (iii) 5 μM HP-1 and the enzyme in HDAC buffer were incubated for 12 hours at 37° C. Following incubation, a 20 μL aliquot of supernatant from each sample was analyzed by LCMS. Deacetylation of HP-1 was investigated by screening for the DHP-1 (M+H)^+ ion following positive electrospray ionization. All assay samples were analyzed in triplicate. […]
HP-1 was not altered by sirtuins 1 and 3 or the proteases chymotrypsin, cathepsin and pepsin, as determined by LCMS. […] For Cathepsin B, the cleavage of the enzyme substrate, z-RR-pNA (Santa Cruz Biotechnology, Dallas, Tex.) was monitored using a Wallac EnVision 2103 Multilabel fluorescence plate reader (PerkinElmer, Waltham, Mass.) with a 405 nm excitation filter, a 406 nm emission filter, and a gain of 150. The cleavage of the pepsin substrate, Ac-Phe-Tyr-OH (Chem-Impex Inc.), was monitored by LCMS at pH 4. […]

[2] = molecular target: HDAC2 (Homo sapiens, UniProt Q92769); test: Caliper microfluidic endpoint IC50 assay
Method: (§1) HP-1 and HP-2 IC50 values for HDAC1 were determined using the Trypsin-coupled assay as well as the Caliper endpoint assay. HP-1 and HP-2 IC50 values for HDAC2, HDAC3, HDAC6 and HDAC8 were determined with the Caliper endpoint assay.
(§2) The Caliper microfluidic assay was performed at the Broad Institute exactly as previously described.^5
(§3) IC50 measurements. HP-1 and HP-2 IC50 values for HDAC1 were determined using the Trypsin-coupled assay as well as the Caliper endpoint assay. HP-1 and HP-2 IC50 values for HDAC2, HDAC3, HDAC6 and HDAC8 were determined with the Caliper endpoint assay (full experimental details in Example 1).

[3] = molecular target: T2, HDAC8 (Homo sapiens, UniProt Q9BY41); test: Caliper microfluidic endpoint IC50 assay
T2 construct: purchased Cayman Chemicals
T2 sequence (Q9BY41 1-377): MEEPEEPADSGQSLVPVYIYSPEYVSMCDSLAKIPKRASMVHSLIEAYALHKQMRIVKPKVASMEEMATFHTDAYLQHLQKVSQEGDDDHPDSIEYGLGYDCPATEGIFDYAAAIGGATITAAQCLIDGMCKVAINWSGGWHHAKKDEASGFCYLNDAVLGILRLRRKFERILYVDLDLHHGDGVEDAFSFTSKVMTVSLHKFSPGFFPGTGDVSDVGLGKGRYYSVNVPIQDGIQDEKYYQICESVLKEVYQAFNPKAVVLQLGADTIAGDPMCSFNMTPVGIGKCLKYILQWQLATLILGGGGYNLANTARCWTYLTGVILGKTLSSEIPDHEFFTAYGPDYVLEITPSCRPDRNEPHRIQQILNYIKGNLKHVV
Method: as §1, §2, §3

[4] = molecular target: T3, HDAC6 (Homo sapiens, UniProt Q9UBN7); test: Caliper microfluidic endpoint IC50 assay
T3 sequence (Q9UBN7 1-1215): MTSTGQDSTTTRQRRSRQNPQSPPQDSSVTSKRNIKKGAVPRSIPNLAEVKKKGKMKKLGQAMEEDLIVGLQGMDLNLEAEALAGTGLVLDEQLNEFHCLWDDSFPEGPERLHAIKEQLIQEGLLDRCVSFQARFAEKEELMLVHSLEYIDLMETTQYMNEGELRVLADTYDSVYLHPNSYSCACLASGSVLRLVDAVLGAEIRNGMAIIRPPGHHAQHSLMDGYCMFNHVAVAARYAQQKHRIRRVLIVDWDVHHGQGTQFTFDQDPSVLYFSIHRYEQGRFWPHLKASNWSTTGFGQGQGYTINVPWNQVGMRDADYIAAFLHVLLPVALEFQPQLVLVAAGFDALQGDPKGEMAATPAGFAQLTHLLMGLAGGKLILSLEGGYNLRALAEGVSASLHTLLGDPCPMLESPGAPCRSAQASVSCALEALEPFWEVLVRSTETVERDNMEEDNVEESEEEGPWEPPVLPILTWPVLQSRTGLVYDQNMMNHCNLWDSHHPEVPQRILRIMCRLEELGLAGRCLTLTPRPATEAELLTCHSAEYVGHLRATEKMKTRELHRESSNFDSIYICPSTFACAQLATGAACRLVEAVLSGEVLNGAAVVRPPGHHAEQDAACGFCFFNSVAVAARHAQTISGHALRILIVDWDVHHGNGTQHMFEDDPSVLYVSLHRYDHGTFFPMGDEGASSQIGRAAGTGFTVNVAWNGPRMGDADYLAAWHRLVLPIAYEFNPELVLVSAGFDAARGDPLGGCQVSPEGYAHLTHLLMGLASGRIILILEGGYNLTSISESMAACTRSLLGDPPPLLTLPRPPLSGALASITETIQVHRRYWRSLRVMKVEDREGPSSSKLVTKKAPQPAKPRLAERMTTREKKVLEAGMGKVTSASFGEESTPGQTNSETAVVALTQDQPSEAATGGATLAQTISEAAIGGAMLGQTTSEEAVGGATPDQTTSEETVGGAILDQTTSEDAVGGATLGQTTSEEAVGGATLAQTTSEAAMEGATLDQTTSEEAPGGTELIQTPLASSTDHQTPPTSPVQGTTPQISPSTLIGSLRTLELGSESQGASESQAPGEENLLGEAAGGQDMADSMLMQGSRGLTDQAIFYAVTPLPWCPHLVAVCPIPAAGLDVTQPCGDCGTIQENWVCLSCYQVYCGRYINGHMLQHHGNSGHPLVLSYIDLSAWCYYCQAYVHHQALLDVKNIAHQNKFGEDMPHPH
Method: as §1, §2, §3

[5] = molecular target: T4, HDAC3 (Homo sapiens, UniProt O15379); test: Caliper microfluidic endpoint IC50 assay
T4 construct: purchased Cayman Chemicals
Method: as §1, §2, §3

T4 sequence (O15379 whole entry): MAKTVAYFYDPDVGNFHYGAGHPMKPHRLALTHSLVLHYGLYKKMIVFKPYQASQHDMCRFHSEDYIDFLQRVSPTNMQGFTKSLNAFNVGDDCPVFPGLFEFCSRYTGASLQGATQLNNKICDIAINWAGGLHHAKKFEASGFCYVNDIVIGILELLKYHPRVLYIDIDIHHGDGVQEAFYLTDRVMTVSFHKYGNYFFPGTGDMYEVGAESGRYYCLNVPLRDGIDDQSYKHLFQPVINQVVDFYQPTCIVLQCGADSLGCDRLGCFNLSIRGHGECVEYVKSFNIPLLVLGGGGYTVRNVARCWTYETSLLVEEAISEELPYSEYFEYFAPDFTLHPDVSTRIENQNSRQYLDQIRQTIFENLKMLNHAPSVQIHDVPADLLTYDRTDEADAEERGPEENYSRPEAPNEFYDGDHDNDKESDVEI
T4 sequence (Q9Y618 395-489 partner limits assumed): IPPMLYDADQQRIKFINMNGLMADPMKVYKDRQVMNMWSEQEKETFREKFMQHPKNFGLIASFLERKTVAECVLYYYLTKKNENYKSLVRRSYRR
Chain of HDAC2 (Q92769 whole entry, species assumed): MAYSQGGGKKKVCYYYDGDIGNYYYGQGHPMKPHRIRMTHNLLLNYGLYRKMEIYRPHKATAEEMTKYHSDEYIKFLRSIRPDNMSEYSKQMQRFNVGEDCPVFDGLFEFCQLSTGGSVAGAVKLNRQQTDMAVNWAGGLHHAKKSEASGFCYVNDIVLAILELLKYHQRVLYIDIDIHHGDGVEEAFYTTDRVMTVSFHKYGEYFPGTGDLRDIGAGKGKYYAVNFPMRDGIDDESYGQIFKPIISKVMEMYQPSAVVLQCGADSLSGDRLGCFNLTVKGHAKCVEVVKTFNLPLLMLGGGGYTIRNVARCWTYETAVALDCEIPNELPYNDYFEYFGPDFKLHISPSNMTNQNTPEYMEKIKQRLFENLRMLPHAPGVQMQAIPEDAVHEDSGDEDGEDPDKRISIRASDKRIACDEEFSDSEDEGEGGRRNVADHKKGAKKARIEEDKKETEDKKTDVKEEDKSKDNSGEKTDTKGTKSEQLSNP
T1 sequence (P00791 60-385): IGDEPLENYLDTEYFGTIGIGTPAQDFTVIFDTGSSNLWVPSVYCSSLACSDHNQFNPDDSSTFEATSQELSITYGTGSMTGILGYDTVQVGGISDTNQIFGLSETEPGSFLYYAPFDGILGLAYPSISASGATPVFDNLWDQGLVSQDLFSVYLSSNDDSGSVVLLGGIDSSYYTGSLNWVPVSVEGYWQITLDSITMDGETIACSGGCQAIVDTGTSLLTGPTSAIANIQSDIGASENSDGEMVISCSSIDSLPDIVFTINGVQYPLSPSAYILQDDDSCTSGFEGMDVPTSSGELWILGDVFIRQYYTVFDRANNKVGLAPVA

Structure (SMILES): CC(=O)NC=CCCCCNC(=O)CCCCCNc1ccc([N+](=O)[O-])c2nonc12 [HP-1]
- % HP-1 to DHP-1 [1]: 0%
- IC50 [2]: > 70 µM
- IC50 [3]: > 70 µM
- IC50 ([4]; HDAC6, Caliper endpoint assay): 12 µM
- binding to HDAC6 (in words) ([4]; competitive inhibition with a peptide substrate): bind
- IC50 [5]: 59 µM
